Experimental data taken from patent US8394641B2, “Method of hydrolyzing an enzymatic substrate” (Advanced Liquid Logic Inc., priority 2009, dated 2013).

Columns and labels:
Assay type in all cases: biochemical
α-galactosidase = target: T1, α-galactosidase (Homo sapiens, UniProt P06280); experiment: Fabry assay on bench, substrate hydrolysis with cyclodextrins, QC DBS extracts; conditions: for effect on hydrolysis of the 4-MU substrate in the Fabry assay: 10, 30, 100 mM tested, effect at 10 mM
T1 construct: DBS extracts were prepared from quality control (QC) dried blood spot samples; tissue CDC, Atlanta Ga; host or cells: dried blood spot extracts (pooled cord blood / leukoreduced red cells plus serum)
T1 sequence (P06280 32-429): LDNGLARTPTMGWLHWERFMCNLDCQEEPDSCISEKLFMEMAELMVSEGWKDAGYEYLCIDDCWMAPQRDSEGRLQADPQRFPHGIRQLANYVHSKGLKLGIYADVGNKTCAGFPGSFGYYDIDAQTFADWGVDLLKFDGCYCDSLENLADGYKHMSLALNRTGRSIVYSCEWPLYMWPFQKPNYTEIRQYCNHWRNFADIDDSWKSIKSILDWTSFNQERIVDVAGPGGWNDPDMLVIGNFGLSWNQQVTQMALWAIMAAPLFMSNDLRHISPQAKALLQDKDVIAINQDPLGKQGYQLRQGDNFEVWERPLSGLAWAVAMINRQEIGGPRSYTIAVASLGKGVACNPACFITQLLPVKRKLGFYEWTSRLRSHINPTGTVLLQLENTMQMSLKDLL
Description: (§1) To evaluate the efficacy of cyclodextrins in enhancing the hydrolysis of enzymatic substrates (4-MU substrates) used in NBS assays, DBS extracts were prepared from quality control (QC) dried blood spot samples (i.e., base pool (BP), low (L), medium (M) and high (H) activity samples). The QC samples were obtained from CDC, Atlanta Ga. The base pool (BP) QC sample was prepared from a pool of leukoreduced human red blood cells that was adjusted with serum to a hematocrit of 50%. The High (H) activity QC sample was prepared from pooled cord blood that was adjusted with serum to a hematocrit of 50%. The medium (M) activity QC sample was prepared by using 50% base pool (BP) and 50% high (H) activity sample. The low (L) activity QC sample was prepared by using 95% base pool (BP) and 5% high (H) activity sample. The BP sample is used as a control for hydrolysis non-specific to white blood cell lysosomal enzymes. The DBS extracts were analyzed using on-bench assay protocols for Fabry, Gaucher, Krabbe, and Pompe diseases. For each assay, on-chip reagent formulations were scaled up to bench volumes. Hydroxypropyl-β-cyclodextrin or methyl-β-cyclodextrin reagent stocks (300 mM) were prepared in appropriate assay buffers. For each reaction, 10 μL of the appropriate substrate was mixed with 10 μL of DBS extract. After an incubation period (20 hrs at 37° C.), 50 μL of stop buffer (0.2 M NaCO3, pH 10.1) was added to the reaction. Fluorescence was read at 360/460 nm at a gain of 75. For each assay, QC samples (BP, L, M and H) were analyzed in duplicate.
FIGS. 20A and 20B show bar graphs 2000 and 2050 of the effect of hydroxypropyl-β-cyclodextrin and methyl-β-cyclodextrin, respectively, on substrate hydrolysis in a Fabry assay. The 4-MU substrate in the Fabry assay was β-D-galactopyranoside. The concentrations of β-cyclodextrins in the reaction mixture (substrate+DBS extract) were 10 mM, 30 mM and 100 mM.
To further evaluate the efficacy of lower concentrations of cyclodextrins in enhancing the hydrolysis of 4-MU substrates, Fabry and Gaucher assays were repeated using cyclodextrins concentrations ranging from 1 mM to 25 mM. FIGS. 22A and 22B show bar graphs 2200 and 2250, respectively, of the effect of lower concentrations of hydroxypropyl-β-cyclodextrin and methyl-β-cyclodextrin, respectively, on substrate hydrolysis in a Fabry assay. The 4-MU substrate in the Fabry assay was β-D-galactopyranoside. The concentrations of β-cyclodextrins in the reaction mixture (substrate+DBS extract) were 1, 5, 10, 15, 20, and 25 mM. […] The preferred concentration of methyl-β-cyclodextrin is from about 1 mM to about 20 mM, or from about 5 mM to about 15 mM, or from about 7 mM to about 13 mM, or from about 9 mM to about 11 mM, or from about 9.5 mM to about 11.5 mM.

α-glucosidase = target: T2, α-glucosidase (Homo sapiens, UniProt P10253); experiment: Pompe assay on bench, substrate hydrolysis with cyclodextrins, QC DBS extracts; conditions: data not shown
T2 construct: DBS extracts were prepared from quality control (QC) dried blood spot samples; tissue CDC, Atlanta Ga; host or cells: dried blood spot extracts (pooled cord blood / leukoreduced red cells plus serum)
Description: as §1, with “For each reaction, 10 μL of the appropriate substrate was mixed with 10 μL of DBS extract. After an incubation period (20 hrs at 37° C.), 50 μL of stop buffer (0.2 M NaCO3, pH 10.1) was added to the reaction.” left out, “duplicate. […]” for “duplicate.”

acid β-D-glucosidase = target: T3, acid β-D-glucosidase (Homo sapiens, UniProt P04062); experiment: Gaucher assay on bench, substrate hydrolysis with cyclodextrins, QC DBS extracts; design: DBS extracts were prepared from quality control (QC) dried blood spot samples; tissue CDC, Atlanta Ga; host or cells: dried blood spot extracts (pooled cord blood / leukoreduced red cells plus serum); conditions: for effect on fluorescence signal in the Gaucher assay, lower concentrations: 1, 5, 10, 15, 20, 25 mM, one experiment; for effect on hydrolysis of the 4-MU substrate in the Gaucher assay: 10, 30, 100 mM tested, effect at 10 mM, 20 hrs at 37° C.
T3 sequence (P04062 40-536): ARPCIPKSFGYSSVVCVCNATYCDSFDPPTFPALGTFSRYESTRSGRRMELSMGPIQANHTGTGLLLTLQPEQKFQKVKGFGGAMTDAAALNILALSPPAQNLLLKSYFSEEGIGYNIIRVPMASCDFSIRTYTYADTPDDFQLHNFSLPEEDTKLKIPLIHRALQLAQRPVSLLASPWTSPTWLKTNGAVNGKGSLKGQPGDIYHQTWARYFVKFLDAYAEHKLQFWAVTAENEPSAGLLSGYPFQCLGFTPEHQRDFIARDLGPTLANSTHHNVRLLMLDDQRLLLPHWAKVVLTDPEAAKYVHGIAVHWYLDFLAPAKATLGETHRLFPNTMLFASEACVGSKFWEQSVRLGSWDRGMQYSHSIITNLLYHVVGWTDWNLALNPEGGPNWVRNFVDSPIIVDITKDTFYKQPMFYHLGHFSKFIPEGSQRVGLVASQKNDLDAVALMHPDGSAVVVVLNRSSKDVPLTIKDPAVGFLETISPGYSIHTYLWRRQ
Description: as §1
FIGS. 21A and 21B show bar graphs 2100 and 2150 of the effect of hydroxypropyl-β-cyclodextrin and methyl-β-cyclodextrin, respectively, on substrate hydrolysis in a Gaucher assay. The 4-MU substrate in the Gaucher assay was β-D-glucopyranoside. The concentrations of β-cyclodextrins in the reaction mixture (substrate+DBS extract) were 10 mM, 30 mM, and 100 mM.
FIGS. 23A and 23B show bar graphs 2300 and 2350, respectively, of an experimental result of the effect of lower concentrations of hydroxypropyl-β-cyclodextrin and methyl-β-cyclodextrin, respectively, on substrate hydrolysis in a Gaucher assay. The 4-MU substrate in the Gaucher assay was β-D-glucopyranoside. The concentrations of β-cyclodextrins in the reaction mixture (substrate+DBS extract) were 1, 5, 10, 15, 20, and 25 mM. […] The β-cyclodextrin used may be hydroxypropyl-β-cyclodextrin at a concentration from about 5 mM to about 15 mM, or from about 7 mM to about 13 mM, or from about 9 mM to about 11 mM, or from about 9.5 mM to about 11.5 mM.

Q: hydroxypropyl-β-cyclodextrin was tested. Which “effect on substrate hydrolysis in a Fabry assay, lower concentrations” value (α-galactosidase; 1, 5, 10, 15, 20, 25 mM) did it give?
A: less effective

Q: And the “effect on hydrolysis of the 4-MU substrate in the Fabry assay” value (α-galactosidase; 20 hrs at 37° C.)?
A: less effective

Q: What about the “effect on substrate hydrolysis in a Pompe assay” value (α-glucosidase) of the same substance?
A: less effective

Q: What about the “effect on fluorescence signal in the Gaucher assay, lower concentrations” value (acid β-D-glucosidase) of the same substance?
A: may affect the fluorescence signal

Q: And the “effect on hydrolysis of the 4-MU substrate in the Gaucher assay” value (acid β-D-glucosidase)?
A: increase the hydrolysis

Q: With methyl-β-cyclodextrin as the substance, how does the “increase of the QC-H signal in the Fabry assay” value (α-galactosidase; 10 mM, 20 hrs at 37° C.) read?
A: 37%

Q: And the “effect on hydrolysis of the 4-MU substrate in the Fabry assay” value (α-galactosidase; 20 hrs at 37° C.)?
A: increase the hydrolysis

Q: What about the “effect on substrate hydrolysis in a Pompe assay” value (α-glucosidase) of the same substance?
A: less effective

Q: What about the “effect on fluorescence signal in the Gaucher assay, lower concentrations” value (acid β-D-glucosidase) of the same substance?
A: may affect the fluorescence signal

Q: And the “effect on hydrolysis of the 4-MU substrate in the Gaucher assay” value (acid β-D-glucosidase)?
A: increase the hydrolysis
